The values that follow come from patent publication US9034859B2, “Sulfated oxysterol and oxysterol sulfation by hydroxysterol sulfotransferase promote lipid homeostasis and liver proliferation” (Virginia Commonwealth University, priority 2011, dated 2015).

The subject of data set [1] is lipogenic gene expression. The data set is described as follows: Relative hepatic mRNA expression by real-time RT-PCR, long-term treatment. Particulars: liver, HFD mice. The format is in vivo, C57BL/6J female mice. Here is the method: Animal studies were approved by Institutional Animal Care and Use Committee of McGuire Veterans Affairs Medical Center and were conducted in accordance with the Declaration of Helsinki, the Guide for the Care and Use of Laboratory Animals, and all applicable regulations. To examine the effect of 25HC3S on diet-induced lipid accumulation in sera and liver, 8-week-old female C57BL/6J mice (Charles River, Wilmington, Mass.) were randomly assigned to three groups: the first control group was fed a chow diet; the high fat diet (HFD) group was fed a HFD (Harlan Teklad, Madison, Wis.) containing 42% kcal from fat, 43% kcal from carbohydrate, 15% kcal from protein and 0.2% cholesterol; and the high cholesterol diet (HCD) group was fed a 2% cholesterol diet with 18% kcal from fat, 58% kcal from carbohydrate and 24% kcal from protein for 10 weeks, respectively. All mice were housed under identical conditions in an aseptic facility and given free access to water and food. At the end of each period, the mice were intraperitoneally injected with vehicle solution (ethanol/PBS; Vehicle), 25HC (25 mg/kg), or 25HC3S (25 mg/kg) for 2 times and fasted over night for acute treatment (n=15-17 for each group) or once every three days for 6 weeks (n=16 for each group) and fasted 5 hrs for long-term treatment; and blood samples were collected. Serum triglyceride, total cholesterol, high density lipoprotein-cholesterol, glucose, alkaline phosphatase (ALK), alanine aminotransferase (ALT), and aspartate aminotransferase (AST) were measured using standard enzymatic techniques in the clinical laboratory at McGuire Veterans Affairs Medical Center. Lipoprotein profiles in sera were analyzed by HPLC as following described.
Total RNA was isolated with SV Total RNA Isolation Kit (Promega, Madison, Wis.), which included DNase treatment. Total RNA, 2 μg, was used for the first-strand cDNA synthesis as recommended by the manufacturer (Invitrogen, Carlsbad, Calif.). Real-time RT-PCR was performed using SYBR Green as indicator on ABI 7500 Fast Real-Time PCR System (Applied Biosystems, Foster City, Calif.). All primer/probe sets for real-time PCR were TaqMan gene expression assays (Applied Biosystems, Foster City, Calif.). Amplifications of β-actin and GAPDH were used as internal controls. Relative messenger RNA (mRNA) expression was quantified with the comparative cycle threshold (Ct) method and was expressed as 2^−ΔΔCt. Suitable primers were utilized.
Background: In qPCR the cycle at which signal appears reflects the starting amount.

The test system of another data set is PCNA. In words: PCNA labeling index in liver histology. The format is in vivo, C57BL/6 mice. The conditions noted are these: liver specimen of 25HC3S treated mice (5 mg/kg, 48 h). How it is done: Metabolism. (Accepted)]. […] Antigen retrieval was performed by microwaving of the sections in citrate buffer (PH 6.0) for 10 min. Sections were incubated overnight at […] with the primary monoclonal antibody against proliferating cell nuclear antigen (PCNA) (ab29, Abcam, Cambridge, Mass.). After washing with PBS, immobilized antibodies were detected by the avidin-biotin-peroxidase complex technique (Vectastain@ ABC Kit, Vector Laboratories, Burlingame, Calif.). DAB (Vector Laboratories, Burlingame, Calif.) and haematoxylin (Sigma-Aldrich, St. Louis, Mo.) was used as the chromogen and nuclear counterstain, respectively. […] The quantitation of PCNA expression was expressed as the PCNA labeling index.

A short description of data set [2]: Pharmacokinetics and tissue biodistribution of radioactivity after i.v. injection. The format is in vivo, C57BL/6 mice. Here is the method:
In a separate set of experiments, mice received an i.v. injection of [^3H]-25HC3S (1×10^6 cpm/mouse) and 25HC3S (5 mg/kg). At 4, 24, 48, and 96 h after the injection, mice were sacrificed, tissues (brain, heart, lung, liver, kidney, spleen, stomach, small intestine, skeletal muscle, and colon) were rapidly dissected and weighed, and the radioactivity was measured using a liquid scintillation counter with automatic decay correction (Beckman Counter, Atlanta, Ga.). Tissue values were calculated as a percentage of injected counts per gram of tissue (% IC/g). For pharmacokinetics, blood samples (30 μl) were collected at selected times after injection from 0 to 96 h via tail clip. Counts of radioactivity were expressed as IC/ml of blood.

Data set [3] relates to primary rat hepatocytes (PRH). The data set is described as follows: Western blot in primary rat hepatocytes (Example 4). The data set is classed as cell-based. The conditions noted are these: Ad-Control-infected group, T0901317 1.5 μM or 25HC 3 μM. How it is done: PRH were prepared as previously described (24). Briefly, parenchymal cells (3.5×10^6) were inoculated in 60-mm plastic Petri dishes coated with rat tail collagen. The plates contained 3 ml of Williams E culture media supplemented with thyroxine (1 μM), dexamethasone (0.1 μM), and penicillin (100 units/ml). Three hours after plating, culture medium was removed and fresh medium was added. Cells were then infected with Ad-SULT2B1b at a multiplicity (MOI) of 10 plaque forming units/cell (pfu/cell) or 100 nM of siRNA-SULT2B1b (ON-TARGET plus siRNA of rat SULT2B1b, Thermo Scientific Dharmacon, Lafayette, Colo.) as previously described (31). The Ad-Control and siRNA-Control (ON-TARGET plus negative control siRNA) were used as controls, respectively. Twenty four hours after infection, cells were treated with T0901317 (1.5 μM) or 25HC (3 μM) for another 24 hours. The cells were harvested at the timepoints as indicated in the text.
Cell lysates were prepared from frozen mouse liver tissues or PRH, and 50 μg of the total proteins were separated by 10% SDS-PAGE, transferred to polyvinylidene difluoride membrane (Millipore, Eschbom, Germany). Specific protein was probed with specific antibodies against PCNA, human SULT2B1b (Santa Cruz Biotechnology, Santa Cruz, Calif.), LXRα (Abcam, Cambridge, Mass.), ATP-binding cassette transporters 1 (ABCA1) (Abcam, Cambridge, Mass.), and SREBP1 (Santa Cruz Biotechnology, Santa Cruz, Calif.). β-Actin (Sigma-Aldrich, St. Louis, Mo.) was used as a loading control. Western analysis was performed by methods known in the art.

[4] abbreviates: once every three days for 6 weeks, mean ± SD, n=5-6.
The mark [5] stands for this setting: i.v. [3H]-25HC3S and 25HC3S 5 mg/kg.

The structures appear in SMILES notation.

As to `CC(CCCC(C)(C)O)C1CCC2C3CC=C4CC(OS(=O)(=O)O)CCC4(C)C3CCC12C` (stereo not drawn) [25HC3S, 25-hydroxycholesterol-3-sulfate], in data set [1] (long-term treatment), the “decrease of ACC1 mRNA level” value was found to be 41%, the “decrease of CD36 mRNA” value worked out at 49%, the “decrease of FAS mRNA level” value is on record as 24% and the “decrease of GPAM mRNA” value is listed as 19%. Also, in data set [1] (long-term treatment), the “decrease of SREBP-1c mRNA level” value is recorded as 23%, the “suppression of IL1α expression” value was 53%, the “suppression of IL1β expression” value is reported as 58% and the “suppression of TNFα expression” value amounted to 47%. In data set [1] (setting [4]), the “ABCA1 relative hepatic mRNA” value is given as 0.80 ± 0.12, the “ABCG1 relative hepatic mRNA” value turned out to be 0.72 ± 0.19, the “ACC1 relative hepatic mRNA” value was determined as 0.63 ± 0.08 and the “CD36 relative hepatic mRNA” value is reported as 0.47 ± 0.08. Moreover, in data set [1] (setting [4]), the “FAS relative hepatic mRNA” value is 0.73 ± 0.16, the “GPAM relative hepatic mRNA” value is listed as 0.81 ± 0.10, the “IL1α relative hepatic mRNA” value turned out to be 0.54 ± 0.14 and the “IL1β relative hepatic mRNA” value came out at 0.58 ± 0.27. Also, in data set [1] (setting [4]), the “IκBα relative hepatic mRNA” value is reported as 1.48 ± 0.38, the “LDLR relative hepatic mRNA” value was found to be 0.79 ± 0.13, the “LXRα relative hepatic mRNA” value is listed as 0.95 ± 0.24 and the “MTTP relative hepatic mRNA” value stood at 0.78 ± 0.09. In data set [1] (setting [4]), the “NFκB relative hepatic mRNA” value is reported as 0.86 ± 0.22, the “PLTP relative hepatic mRNA” value amounted to 0.60 ± 0.11, the “SRB1 relative hepatic mRNA” value worked out at 0.87 ± 0.20 and the “SREBP-1c relative hepatic mRNA” value amounted to 0.76 ± 0.08. Also, in data set [1] (setting [4]), the “TNFα relative hepatic mRNA” value turned out to be 0.60 ± 0.34. This compound registered a PCNA labeling index with PCNA of 12%. In addition, in data set [2] (i.v. [3H]-25HC3S (1×10^6 cpm/mouse) and 25HC3S 5 mg/kg), the “maximum level of 3H-radioactivity in blood” value turned out to be 7 % IC/g. In data set [2] (setting [5]), the “time at which blood 3H-radioactivity decreased to the half level” value is listed as 48 h and the “time of maximum 3H-radioactivity in blood” value turned out to be 1 h. For the same compound, the clearance result in data set [2] (i.v., blood radioactivity) was “slow clearance”. Besides, in data set [2] (i.v., measured at 4, 24, 48 and 96 h), the “time of highest uptake of 3H-radioactivity in most organs” value is recorded as 4 h.
Turning to `C[C@H](CCCC(C)(C)O)[C@H]1CC[C@H]2[C@@H]3CC=C4C[C@@H](O)CC[C@]4(C)[C@H]3CC[C@]12C` [25HC, 25-hydroxycholesterol], in data set [3], the “LXR response gene expressions” value was “significantly increased” and the PCNA expression result is given as “decreased”.
